Experimental data from ChEMBL document CHEMBL5537152, “Targeted Degradation of PCSK9 In Vivo by Autophagy-Tethering Compounds” (J Med Chem, 2024).

Columns and labels:
Mus musculus [1] = test: Antiatherosclerotic activity in hypercholesterolemic ApoE-/- mouse model assessed as decrease in plasma LDL-C level at 15 mg/kg/day, ip measured after 21 days relative to control; format: functional; conditions: time 21 day
Mus musculus [2] = test: Synergistic antiatherosclerotic activity in hypercholesterolemic ApoE-/- mouse model assessed as decrease in plasma LDL-C level at 15 mg/kg, ip administered daily for 3 weeks; format: functional; parameters: scale not given: the % may be the effect or the level left

CCC(C)(C)C(=O)O[C@H]1C[C@@H](C)C=C2C=C[C@H](C)[C@H](CC[C@@H]3C[C@@H](O)CC(=O)O3)[C@H]21 [SIMVASTATIN] showed an Efficacy (Mus musculus [1]) of 23.59% and an Activity (Mus musculus [2]) of 23.59%.
